Measurements published in paper PMC12497685, “Anticoronavirus Isoquinoline Alkaloids: Unraveling the Secrets of Their Structure–Activity Relationship” (Influenza and Other Respiratory Viruses, 2025).
Where “and” joins values, the source holds several entries; their conditions need not be identical. Equal values may be shown once. Read-outs that look alike come from different tables or passages of the source.

Assays:
HCoV‐229E = assay: microbe, parasite or virus in culture; format: cell-based; settings: for Protective effects HCoV-229E % / inhibition at 10 µM: at 10 μM, compared with vehicle control, Huh7 cells, n = 1; for inhibition at 10 µM: Human coronavirus 229E, Huh-7, read-out: Protective effects HCoV-229E %
Huh7 cells = settings: at 10 μM, compared with vehicle control, n = 1
[1] = test system: hACE‐2‐overexpressed HEK293T (ACE2‐293T cells)
in vitro = settings: human

Row | Compound | Protective effects HCoV-229E % (HCoV‐229E) | Cytotoxicity to the host Huh7 cells % (Huh7 cells) | further results
1 | (±)‐Haemanthidine [Compound 1] | 80% | 20% and ~ 20% | EC50 (HCoV‐229E): 4.11 ± 0.41 µM; cytotoxicity towards hACE2‐293 T cells (in words) [1]: toxic; Cell viability (%) ([1]; ACE2-293T, 10 μM, 24 h, WST-1): 51.97 ± 7.07%
2 | COc1cc2c3cc1Oc1c(OC)c(OC)cc4c1[C@@H](Cc1ccc(O)c(c1)Oc1ccc(cc1)C[C@@H]3N(C)CC2)N(C)CC4 [Compound 17, (+)‐berbamine] | – | 25% and ~ 20% | inhibition at 10 µM (HCoV‐229E): 70%; cytotoxicity towards hACE2‐293 T cells (in words) [1]: nontoxic; viability at 10 µM (in vitro): 103 ± 2.42%
3 | (+)‐aromoline [Compound 16] | 85% | — (Non-toxic (insignificant cytotoxic effects, below 20%)) | EC50 (HCoV‐229E): 4.33 ± 0.9 µM; cytotoxicity towards hACE2‐293 T cells (in words) [1]: nontoxic; Cell viability (%) ([1]; 10 µM): 103.64 ± 3.23%
4 | COc1cc2c3cc1Oc1c(O)c(OC)cc4c1[C@@H](Cc1ccc(O)c(c1)Oc1ccc(cc1)C[C@@H]3N(C)CC2)N(C)CC4 [Compound 19, (+)‐obamegine] | – | — (Non-toxic (insignificant cytotoxic effects, below 20%)) | inhibition at 10 µM (HCoV‐229E): 80%; cytotoxicity towards hACE2‐293 T cells (in words) [1]: nontoxic; viability at 10 µM (in vitro): 97.5 ± 7.15%
5 | N‐methyllaurotetanine [Compound 56] | — (Not active (insignificant protective effects below 20%)) | — (Non-toxic (insignificant cytotoxic effects, below 20%)) | –
6 | COc1cc2c(cc1O)[C@@H]1[C@H](O)[C@@H](OC)C=C3CCN(C2)[C@H]31 [Compound 4, 9‐O‐demethylgalanthine] | — (Not active (insignificant protective effects below 20%)) | — (Non-toxic (insignificant cytotoxic effects, below 20%)) | –
7 | COc1ccc2c(c1O)-c1c3c(cc4c1[C@H](C2)N(C)CC4)OCO3 [Compound 28, (+)‐bulbocapnine] | — (Not active (insignificant protective effects below 20%)) | — (Non-toxic (insignificant cytotoxic effects, below 20%)) | –
8 | COc1cc2c(cc1O)C[C@@H]1NCCc3cc(OC)c(OC)c-2c31 [Compound 58, (+)‐laurotetanine] | — (Not active (insignificant protective effects below 20%)) | — (Non-toxic (insignificant cytotoxic effects, below 20%)) | –
9 | COc1ccc2c(c1O)-c1c(OC)c(OC)cc3c1[C@H](C2)NCC3 [Compound 57, norisocoridine] | — (Not active (insignificant protective effects below 20%)) | — (Non-toxic (insignificant cytotoxic effects, below 20%)) | –
10 | (−)‐fumarophycine hydrochloride [Compound 37] | — (Not active (insignificant protective effects below 20%)) | — (Non-toxic (insignificant cytotoxic effects, below 20%)) | –
11 | COc1ccc(Cc2nccc3cc(OC)c(OC)cc23)cc1OC [Compound 53, papaverine] | – | 20% | inhibition at 10 µM (HCoV‐229E): < 20%
12 | COc1cc2c(cc1OC)C1Cc3cc(OC)c(OC)cc3[C@H](C2)N1C [Compound 23, argemonine] | — (Not active (insignificant protective effects below 20%)) | — (Non-toxic (insignificant cytotoxic effects, below 20%)) | –
13 | COc1cc2c(cc1OC)[C@@]1(Cc3ccc4c(c3[C@@H]1O)OCO4)N(C)CC2 [Compound 38, (−)‐fumaricine] | — (Not active (insignificant protective effects below 20%)) | — (Non-toxic (insignificant cytotoxic effects, below 20%)) | –
14 | COc1cc2c(cc1OC)C1Cc3ccc4c(c3CN1CC2)OCO4 (stereo not drawn) [Compound 43, (−)‐sinactine] | — (Not active (insignificant protective effects below 20%)) | — (Non-toxic (insignificant cytotoxic effects, below 20%)) | –
15 | COc1ccc2cc3n(c(=O)c2c1OC)CCc1cc2c(cc1-3)OCO2 [Compound 22, 8‐oxoberberine] | — (Not active (insignificant protective effects below 20%)) | — (Non-toxic (insignificant cytotoxic effects, below 20%)) | –
16 | CCOC1c2c(ccc(OC)c2OC)-c2ccc3cc4c(cc3c2N1C)OCO4 (stereo not drawn) [Compound 52, 6‐ethoxydihydrochelerytrine] | — (Not active (insignificant protective effects below 20%)) | 80% and > 80% | –
17 | COc1ccc2c(c1OC)C(=O)O[C@@H]2[C@H]1c2c(cc3c(c2OC)OCO3)CCN1C [Compound 55, (−)‐narcotine] | – | 20% | inhibition at 10 µM (HCoV‐229E): < 20%
18 | COc1ccc2c(c1OC)CN(C)CCc1cc3c(cc1C(=O)C2)OCO3 [Compound 29, Allocryptopine] | – | — (Non-toxic (insignificant cytotoxic effects, below 20%)) | inhibition at 10 µM (HCoV‐229E): < 20%
19 | CCOC1c2c(ccc3c2OCO3)-c2ccc3cc4c(cc3c2N1C)OCO4 (stereo not drawn) [Compound 51, 6‐ethoxydihydrosanguinarine] | — (Not active (insignificant protective effects below 20%)) | 90% and > 80% | –
20 | COc1ccc2c(c1OC)CN1CCc3cc4c(cc3C1C2)OCO4 (stereo not drawn) [Compound 26, (+)‐canadine] | — (Not active (insignificant protective effects below 20%)) | — (Non-toxic (insignificant cytotoxic effects, below 20%)) | –
21 | O[C@@H]1Cc2cc3c(cc2[C@@H]2NCc4c(ccc5c4OCO5)[C@H]12)OCO3 [Compound 48, norchelidonine] | – | 50% | inhibition at 10 µM (HCoV‐229E): 50%
22 | COc1cc2c(cc1O)[C@@H]1Cc3ccc(OC)c(O)c3CN1CC2 [Compound 33, (−)‐scoulerine] | — (Not active (insignificant protective effects below 20%)) | 40% and 35%–40% | –
